According to ChEMBL document CHEMBL1201862, “PubChem BioAssay data set” (2004):
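Protocol summary: plate cells (96-well), add compound at 5 concentrations, incubate 48 h, interpolate endpoints linearly. At the GI50, growth is halved.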 Active and inactive are the calls of the source. Rule as the data show it: active = GI50 up to about 1.1 µM and inactive = higher.

Tests used:
Test in all cases: growth of human tumour cells (NCI), 48 h
SK-MEL-5 = test system: SK-MEL-5
M14 = test system: M14
HL-60 = test system: HL-60
SK-MEL-28 = test system: SK-MEL-28
Malme-3M = test system: Malme-3M
TK-10 = test system: TK-10
LOX IMVI = test system: LOX IMVI
HCT-15 = test system: HCT-15
KM-20L2 = test system: KM-20L2
A549 = test system: A549
EKVX = test system: EKVX
OVCAR-8 = test system: OVCAR-8
HOP-18 = test system: HOP-18
HT-29 = test system: HT-29
XF498 = test system: XF498
786-0 = test system: 786-0
M19-MEL = test system: M19-MEL
RPMI-8226 = test system: RPMI-8226
NCI-H522 = test system: NCI-H522
DLD-1 = test system: DLD-1
CCRF-CEM = test system: CCRF-CEM
OVCAR-5 = test system: OVCAR-5
RXF 393 = test system: RXF 393
NCI-H226 = test system: NCI-H226
NCI-H460 = test system: NCI-H460
RXF 631 = test system: RXF 631
HCC 2998 = test system: HCC 2998
SNB-19 = test system: SNB-19
OVCAR-4 = test system: OVCAR-4
DMS-114 = test system: DMS-114
SK-MEL-2 = test system: SK-MEL-2
UO-31 = test system: UO-31
SK-OV-3 = test system: SK-OV-3
IGROV-1 = test system: IGROV-1
LXFL 529 = test system: LXFL 529
ACHN = test system: ACHN
SN12C = test system: SN12C
MOLT-4 = test system: MOLT-4
DMS-273 = test system: DMS-273
SNB-75 = test system: SNB-75
SW-620 = test system: SW-620
UACC-62 = test system: UACC-62
CAKI-1 = test system: CAKI-1
SF-268 = test system: SF-268
SF-539 = test system: SF-539
OVCAR-3 = test system: OVCAR-3
COLO 205 = test system: COLO 205
NCI-H23 = test system: NCI-H23
HOP-62 = test system: HOP-62
KM12 = test system: KM12
K562 = test system: K562
SF-295 = test system: SF-295
UACC-257 = test system: UACC-257
SNB-78 = test system: SNB-78
HCT-116 = test system: HCT-116
SR = test system: SR
U-251 = test system: U-251

Question: For `[O-][S+]1c2ccccc2N=C(c2ccc3ccccc3c2)CC1C1=CC=CCC1` (stereo not drawn), which GI50 (SK-MEL-5) is on record?
Answer: 16.6 µM (inactive)

Question: And the GI50 (M14)?
Answer: 18.7 µM (inactive)

Question: And the GI50 (HL-60)?
Answer: 17.6 µM (inactive)

Question: What about the GI50 (SK-MEL-28) of the same compound?
Answer: 18.2 µM (inactive)

Question: And the GI50 (Malme-3M)?
Answer: 27.4 µM (inactive)

Question: What about the GI50 (TK-10) of the same compound?
Answer: 22.2 µM (inactive)

Question: And the GI50 (LOX IMVI)?
Answer: 15.4 µM (inactive)

Question: And the GI50 (HCT-15)?
Answer: 16.7 µM

Question: What about the GI50 (KM-20L2) of the same compound?
Answer: 19.5 µM (inactive)

Question: What about the GI50 (A549) of the same compound?
Answer: 26.3 µM (inactive)

Question: And the GI50 (EKVX)?
Answer: 22.7 µM (inactive)

Question: What about the GI50 (OVCAR-8) of the same compound?
Answer: 20.3 µM (inactive)

Question: And the GI50 (HOP-18)?
Answer: 35.8 µM (inactive)

Question: And the GI50 (HT-29)?
Answer: 16.5 µM (inactive)

Question: And the GI50 (XF498)?
Answer: 17.1 µM (inactive)

Question: What about the GI50 (786-0) of the same compound?
Answer: 16 µM (inactive)

Question: And the GI50 (M19-MEL)?
Answer: 17.1 µM (inactive)

Question: What about the GI50 (RPMI-8226) of the same compound?
Answer: 8.75 µM (inactive)

Question: And the GI50 (NCI-H522)?
Answer: 16.9 µM (inactive)

Question: And the GI50 (DLD-1)?
Answer: 12.9 µM (inactive)

Question: And the GI50 (CCRF-CEM)?
Answer: 7.19 µM (inactive)

Question: What about the GI50 (OVCAR-5) of the same compound?
Answer: 18.9 µM (inactive)

Question: And the GI50 (RXF 393)?
Answer: 16.8 µM (inactive)

Question: What about the GI50 (NCI-H226) of the same compound?
Answer: 19.4 µM (inactive)

Question: What about the GI50 (NCI-H460) of the same compound?
Answer: 20.3 µM (inactive)

Question: What about the GI50 (RXF 631) of the same compound?
Answer: 17.2 µM (inactive)

Question: And the GI50 (HCC 2998)?
Answer: 13.1 µM (inactive)

Question: What about the GI50 (SNB-19) of the same compound?
Answer: > 10 µM (inactive)

Question: What about the GI50 (OVCAR-4) of the same compound?
Answer: > 10 µM (inactive)

Question: What about the GI50 (DMS-114) of the same compound?
Answer: 15.2 µM (inactive)

Question: What about the GI50 (SK-MEL-2) of the same compound?
Answer: 19.1 µM (inactive)

Question: And the GI50 (UO-31)?
Answer: 13.8 µM (inactive)

Question: And the GI50 (SK-OV-3)?
Answer: 30.5 µM (inactive)

Question: What about the GI50 (IGROV-1) of the same compound?
Answer: 13.2 µM (inactive)

Question: And the GI50 (LXFL 529)?
Answer: 14.8 µM (inactive)

Question: And the GI50 (ACHN)?
Answer: 19 µM (inactive)

Question: And the GI50 (SN12C)?
Answer: 17.4 µM (inactive)

Question: And the GI50 (MOLT-4)?
Answer: 13.7 µM (inactive)

Question: And the GI50 (DMS-273)?
Answer: 19.2 µM (inactive)

Question: And the GI50 (SNB-75)?
Answer: 17.9 µM (inactive)

Question: What about the GI50 (SW-620) of the same compound?
Answer: 18.4 µM (inactive)

Question: What about the GI50 (UACC-62) of the same compound?
Answer: 15.7 µM (inactive)

Question: What about the GI50 (CAKI-1) of the same compound?
Answer: 16.1 µM (inactive)

Question: And the GI50 (SF-268)?
Answer: 25.8 µM (inactive)

Question: And the GI50 (SF-539)?
Answer: 21.9 µM (inactive)

Question: And the GI50 (OVCAR-3)?
Answer: 16.9 µM (inactive)

Question: What about the GI50 (COLO 205) of the same compound?
Answer: 20.5 µM (inactive)

Question: What about the GI50 (NCI-H23) of the same compound?
Answer: 14.6 µM (inactive)

Question: What about the GI50 (HOP-62) of the same compound?
Answer: 19.1 µM (inactive)

Question: What about the GI50 (KM12) of the same compound?
Answer: 14.9 µM (inactive)

Question: And the GI50 (K562)?
Answer: 10.3 µM (inactive)

Question: And the GI50 (SF-295)?
Answer: 17.7 µM (inactive)

Question: What about the GI50 (UACC-257) of the same compound?
Answer: 18.3 µM (inactive)

Question: `OCC1OC2c3ccccc3COC2C1OCc1ccccc1` (stereo not drawn) was tested. Which GI50 (SK-MEL-5) did it give?
Answer: 38.1 µM (inactive)

Question: What about the GI50 (M14) of the same compound?
Answer: > 100 µM (inactive)

Question: What about the GI50 (SK-MEL-28) of the same compound?
Answer: > 100 µM (inactive)

Question: And the GI50 (Malme-3M)?
Answer: > 100 µM (inactive)

Question: What about the GI50 (TK-10) of the same compound?
Answer: > 100 µM (inactive)

Question: What about the GI50 (HCT-15) of the same compound?
Answer: > 100 µM

Question: And the GI50 (SNB-78)?
Answer: > 100 µM (inactive)

Question: What about the GI50 (KM-20L2) of the same compound?
Answer: > 100 µM (inactive)

Question: And the GI50 (A549)?
Answer: > 100 µM (inactive)

Question: What about the GI50 (EKVX) of the same compound?
Answer: > 100 µM (inactive)

Question: What about the GI50 (OVCAR-8) of the same compound?
Answer: > 100 µM (inactive)

Question: What about the GI50 (HOP-18) of the same compound?
Answer: > 100 µM (inactive)

Question: And the GI50 (HT-29)?
Answer: > 100 µM (inactive)

Question: And the GI50 (XF498)?
Answer: 49.2 µM (inactive)

Question: What about the GI50 (786-0) of the same compound?
Answer: > 100 µM (inactive)

Question: What about the GI50 (HCT-116) of the same compound?
Answer: > 100 µM (inactive)

Question: And the GI50 (M19-MEL)?
Answer: > 100 µM (inactive)

Question: And the GI50 (RPMI-8226)?
Answer: > 100 µM (inactive)

Question: And the GI50 (NCI-H522)?
Answer: 70.1 µM (inactive)

Question: What about the GI50 (DLD-1) of the same compound?
Answer: > 100 µM (inactive)

Question: What about the GI50 (OVCAR-5) of the same compound?
Answer: > 100 µM (inactive)

Question: And the GI50 (RXF 393)?
Answer: > 100 µM (inactive)

Question: What about the GI50 (SR) of the same compound?
Answer: > 100 µM (inactive)

Question: And the GI50 (NCI-H226)?
Answer: > 100 µM (inactive)

Question: And the GI50 (NCI-H460)?
Answer: > 100 µM (inactive)

Question: And the GI50 (RXF 631)?
Answer: > 100 µM (inactive)

Question: What about the GI50 (HCC 2998) of the same compound?
Answer: > 100 µM (inactive)

Question: And the GI50 (SNB-19)?
Answer: > 100 µM (inactive)

Question: And the GI50 (OVCAR-4)?
Answer: > 100 µM (inactive)

Question: What about the GI50 (DMS-114) of the same compound?
Answer: 59.4 µM (inactive)

Question: And the GI50 (SK-MEL-2)?
Answer: > 100 µM (inactive)

Question: What about the GI50 (UO-31) of the same compound?
Answer: > 100 µM (inactive)

Question: What about the GI50 (SK-OV-3) of the same compound?
Answer: > 100 µM (inactive)

Question: What about the GI50 (IGROV-1) of the same compound?
Answer: > 100 µM (inactive)

Question: What about the GI50 (LXFL 529) of the same compound?
Answer: 87.7 µM (inactive)

Question: What about the GI50 (ACHN) of the same compound?
Answer: > 100 µM (inactive)

Question: And the GI50 (SN12C)?
Answer: > 100 µM (inactive)

Question: And the GI50 (MOLT-4)?
Answer: > 100 µM (inactive)

Question: What about the GI50 (SNB-75) of the same compound?
Answer: > 100 µM (inactive)

Question: What about the GI50 (SW-620) of the same compound?
Answer: > 100 µM (inactive)

Question: And the GI50 (UACC-62)?
Answer: 69.5 µM (inactive)

Question: And the GI50 (CAKI-1)?
Answer: 96.8 µM (inactive)

Question: And the GI50 (U-251)?
Answer: > 100 µM (inactive)

Question: And the GI50 (OVCAR-3)?
Answer: > 100 µM (inactive)

Question: What about the GI50 (COLO 205) of the same compound?
Answer: > 100 µM (inactive)

Question: What about the GI50 (NCI-H23) of the same compound?
Answer: 91.6 µM (inactive)

Question: What about the GI50 (KM12) of the same compound?
Answer: > 100 µM (inactive)

Question: What about the GI50 (K562) of the same compound?
Answer: 96.4 µM (inactive)

Question: What about the GI50 (SF-295) of the same compound?
Answer: 88.9 µM (inactive)

Question: And the GI50 (UACC-257)?
Answer: 37 µM (inactive)
